Read-outs that look alike come from different tables or passages of the source.
Test system: HEK293T cells
Type: cell-based
Method in brief: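 HEK293T and U2OS cells (DMEM) and MRC-9 fibroblasts (EMEM) exposed to compounds at 1 and 10 μM. Live-cell confocal imaging of cell shape and fluorescence before and at 12, 24 and 48 h. Normalized to 0.1% DMSO; biological duplicates with SEM.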

[1] = 1 µM, 0 h, HEK293T, replicate 2
[2] = 1 µM, 12 h, HEK293T, replicate 2
[3] = 1 µM, 24 h, HEK293T, replicate 2
[4] = 1 µM, 48 h, HEK293T, replicate 1
[5] = 1 µM, 48 h, HEK293T, replicate 2
[6] = 10 µM, 0 h, HEK293T, replicate 2
[7] = 10 µM, 12 h, HEK293T, replicate 2
[8] = 10 µM, 24 h, HEK293T, replicate 2
[9] = 10 µM, 48 h, HEK293T, replicate 2
[10] = HEK293T, 1 µM, 0 h after treatment
[11] = HEK293T, 1 µM, 12 h after treatment
[12] = HEK293T, 1 µM, 24 h after treatment
[13] = HEK293T, 10 µM, 0 h after treatment
[14] = HEK293T, 10 µM, 12 h after treatment
[15] = HEK293T, 10 µM, 24 h after treatment
[16] = HEK293T, 10 µM, 48 h after treatment

CN1C(=O)[C@@H](N2CCc3c(C(N)=O)nn(Cc4ccccc4)c3C2=O)COc2ccccc21 [Compound 11]
Population with membrane disruption (%) (human, 0 h, 10 µM): 0.00%
Population with membrane disruption (%) (human, 12 h, 10 µM): 0.00%
Population with membrane disruption (%) (human, 24 h, 10 µM): 0.00%

CN1C(=O)[C@@H](N2CCc3c(nn(Cc4ccccc4)c3C(N)=O)C2=O)COc2cc(Cl)ccc21 [Compound 10, (S)-2-benzyl-6-(8-chloro-5-methyl-4-oxo-2,3,4,5-tetrahydrobenzo[b][1,4]oxazepin-3-yl)-7-oxo-4,5,6,7-tetrahydro-2H-pyrazolo[3,4-c]pyridine-3-carboxamide]
Cell count normalized to cells treated with DMSO control [1]: 0.9791
Cell count per well [1]: 224
Population Fragmented Nuclei (%) [1]: 4.50%
Population Healthy Nuclei (%) [1]: 67.00%
Population Pyknosed Nuclei (%) [1]: 28.50%
Population apoptotic cell (%) [1]: 66.67%
Population cell that influence microtubule strucutre (%) [1]: 23.88%
Population with increased mitochondrial mass (%) [1]: 83.58%
Population with membrane disruption (%) [1]: 0.00%
Cell count normalized to cells treated with DMSO control [2]: 1.07
Cell count per well [2]: 375
Population Fragmented Nuclei (%) [2]: 6.44%
Population Healthy Nuclei (%) [2]: 80.67%
Population Pyknosed Nuclei (%) [2]: 12.89%
Population apoptotic cell (%) [2]: 23.91%
Population cell that influence microtubule strucutre (%) [2]: 20.49%
Population with increased mitochondrial mass (%) [2]: 45.83%
Population with membrane disruption (%) [2]: 0.69%
Cell count normalized to cells treated with DMSO control [3]: 1.152
Cell count per well [3]: 520
Population Fragmented Nuclei (%) [3]: 9.33%
Population Healthy Nuclei (%) [3]: 82.94%
Population Pyknosed Nuclei (%) [3]: 7.74%
Population apoptotic cell (%) [3]: 43.59%
Population cell that influence microtubule strucutre (%) [3]: 13.64%
Population with increased mitochondrial mass (%) [3]: 27.75%
Population with membrane disruption (%) [3]: 0.24%
Cell count normalized to cells treated with DMSO control [4]: 1.025
Cell count per well [4]: 1037
Population Fragmented Nuclei (%) [4]: 16.00%
Population Healthy Nuclei (%) [4]: 79.80%
Population Pyknosed Nuclei (%) [4]: 4.20%
Population apoptotic cell (%) [4]: 6.98%
Population cell that influence microtubule strucutre (%) [4]: 10.88%
Population with increased mitochondrial mass (%) [4]: 12.47%
Population with membrane disruption (%) [4]: 2.32%
Cell count normalized to cells treated with DMSO control [5]: 1.189
Cell count per well [5]: 812
Population Fragmented Nuclei (%) [5]: 18.11%
Population Healthy Nuclei (%) [5]: 75.56%
Population Pyknosed Nuclei (%) [5]: 6.33%
Population apoptotic cell (%) [5]: 17.65%
Population cell that influence microtubule strucutre (%) [5]: 11.82%
Population with increased mitochondrial mass (%) [5]: 11.00%
Population with membrane disruption (%) [5]: 1.97%
cytotoxicity (1 μM, HEK293T): no cytotoxicity
Cell count normalized to cells treated with DMSO control [6]: 0.8086
Cell count per well [6]: 185
Population Fragmented Nuclei (%) [6]: 2.99%
Population Healthy Nuclei (%) [6]: 66.47%
Population Pyknosed Nuclei (%) [6]: 30.54%
Population apoptotic cell (%) [6]: 64.71%
Population cell that influence microtubule strucutre (%) [6]: 27.03%
Population with increased mitochondrial mass (%) [6]: 85.59%
Population with membrane disruption (%) [6]: 0.00%
Cell count normalized to cells treated with DMSO control [7]: 0.8449
Cell count per well [7]: 296
Population Fragmented Nuclei (%) [7]: 7.69%
Population Healthy Nuclei (%) [7]: 76.54%
Population Pyknosed Nuclei (%) [7]: 15.77%
Population apoptotic cell (%) [7]: 63.41%
Population cell that influence microtubule strucutre (%) [7]: 38.69%
Population with increased mitochondrial mass (%) [7]: 77.89%
Population with membrane disruption (%) [7]: 0.00%
Cell count normalized to cells treated with DMSO control [8]: 0.8682
Cell count per well [8]: 392
Population Fragmented Nuclei (%) [8]: 11.70%
Population Healthy Nuclei (%) [8]: 77.99%
Population Pyknosed Nuclei (%) [8]: 10.31%
Population apoptotic cell (%) [8]: 56.76%
Population cell that influence microtubule strucutre (%) [8]: 28.21%
Population with increased mitochondrial mass (%) [8]: 65.71%
Population with membrane disruption (%) [8]: 0.00%
Cell count normalized to cells treated with DMSO control [9]: 0.7573
Cell count per well [9]: 517
Population Fragmented Nuclei (%) [9]: 16.37%
Population Healthy Nuclei (%) [9]: 77.05%
Population Pyknosed Nuclei (%) [9]: 6.59%
Population apoptotic cell (%) [9]: 39.39%
Population cell that influence microtubule strucutre (%) [9]: 19.17%
Population with increased mitochondrial mass (%) [9]: 40.93%
Population with membrane disruption (%) [9]: 0.00%
toxicity (10 μM, within the 48 h time frame, b30 names HEK293T (apoptotic cell population)): slight increase in toxicity
impact on tubulin, mitochondrial mass, and cellular permeability in healthy cells (HEK293T, 1 μM (Figure 6)): comparable to that of the 0.1% DMSO control
Cell count normalized to cells treated with DMSO control [10]: 1.066
Cell count per well [10]: 318
Population Fragmented Nuclei (%) [10]: 7.28%
Population Healthy Nuclei (%) [10]: 48.28%
Population Pyknosed Nuclei (%) [10]: 44.44%
Population apoptotic cell (%) [10]: 40.52%
Population cell that influence microtubule strucutre (%) [10]: 21.43%
Population with increased mitochondrial mass (%) [10]: 63.49%
Population with membrane disruption (%) [10]: 0.00%
Cell count normalized to cells treated with DMSO control [11]: 1.032
Cell count per well [11]: 470
Population Fragmented Nuclei (%) [11]: 6.59%
Population Healthy Nuclei (%) [11]: 81.41%
Population Pyknosed Nuclei (%) [11]: 12.00%
Population apoptotic cell (%) [11]: 25.49%
Population cell that influence microtubule strucutre (%) [11]: 28.03%
Population with increased mitochondrial mass (%) [11]: 37.86%
Population with membrane disruption (%) [11]: 0.58%
Cell count normalized to cells treated with DMSO control [12]: 1.043
Cell count per well [12]: 633
Population Fragmented Nuclei (%) [12]: 13.01%
Population Healthy Nuclei (%) [12]: 77.59%
Population Pyknosed Nuclei (%) [12]: 9.39%
Population apoptotic cell (%) [12]: 29.82%
Population cell that influence microtubule strucutre (%) [12]: 18.05%
Population with increased mitochondrial mass (%) [12]: 21.02%
Population with membrane disruption (%) [12]: 0.85%
Cell count normalized to cells treated with DMSO control [13]: 0.8779
Cell count per well [13]: 262
Population Fragmented Nuclei (%) [13]: 12.05%
Population Healthy Nuclei (%) [13]: 39.73%
Population Pyknosed Nuclei (%) [13]: 48.21%
Population apoptotic cell (%) [13]: 50.00%
Population cell that influence microtubule strucutre (%) [13]: 14.61%
Population with increased mitochondrial mass (%) [13]: 59.55%
Population with membrane disruption (%) [13]: 0.00%
Cell count normalized to cells treated with DMSO control [14]: 0.8806
Cell count per well [14]: 401
Population Fragmented Nuclei (%) [14]: 9.68%
Population Healthy Nuclei (%) [14]: 77.15%
Population Pyknosed Nuclei (%) [14]: 13.17%
Population apoptotic cell (%) [14]: 46.94%
Population cell that influence microtubule strucutre (%) [14]: 42.51%
Population with increased mitochondrial mass (%) [14]: 57.84%
Population with membrane disruption (%) [14]: 0.00%
Cell count normalized to cells treated with DMSO control [15]: 0.8057
Cell count per well [15]: 489
Population Fragmented Nuclei (%) [15]: 10.83%
Population Healthy Nuclei (%) [15]: 78.34%
Population Pyknosed Nuclei (%) [15]: 10.83%
Population apoptotic cell (%) [15]: 43.14%
Population cell that influence microtubule strucutre (%) [15]: 28.46%
Population with increased mitochondrial mass (%) [15]: 48.51%
Population with membrane disruption (%) [15]: 0.27%
Cell count normalized to cells treated with DMSO control [16]: 0.8197
Cell count per well [16]: 829
Population Fragmented Nuclei (%) [16]: 23.14%
Population Healthy Nuclei (%) [16]: 71.74%
Population Pyknosed Nuclei (%) [16]: 5.12%
Population apoptotic cell (%) [16]: 33.33%
Population cell that influence microtubule strucutre (%) [16]: 14.26%
Population with increased mitochondrial mass (%) [16]: 26.32%
Population with membrane disruption (%) [16]: 0.51%
